Legend:
Assay in all cases: Postemergence foliar-applied herbicidal mixtures, weeds common to row crops
Assay type in all cases: in vivo
[1] = tested on: SORHA Sorghum halepense (L.) Pers. (Johnsongrass); conditions: Quizalofop-P-ethyl 7.125 g ae/ha
Excerpt: (§1) Evaluation of Postemergence Foliar-Applied Herbicidal Mixtures for Control of Weeds Common to Row Crops such as Corn and Soybeans. Seeds or nutlets of the desired test plant species were planted in a soil matrix prepared by mixing a loam or sandy loam soil (e.g., 28.6 percent silt, 18.8 percent clay, and 52.6 percent sand, with a pH of about 5.8 and an organic matter content of about 1.8 percent) and calcareous grit in an 80 to 20 ratio. The soil matrix was contained in plastic pots with a surface area of 84.6 cm^2 and a volume of 560 cubic centimeters (cm^3). When required to ensure good germination and healthy plants, a fungicide treatment and/or other chemical or physical treatment was applied. The plants were grown for 7-31 d in a greenhouse with an approximate 15 h photoperiod which was maintained at about 23-29° C. during the day and 22-28° C. during the night. Nutrients (Peters Excel® 15-5-15 5-Ca 2-Mg) and water were added on a regular basis and supplemental lighting was provided with overhead metal halide 1000-Watt lamps as necessary. The plants were employed for testing when they reached the first, second, or third true leaf stage.
(§2) Treatment requirements were calculated based upon the rates being tested, the concentration of active ingredient or acid equivalent in the formulation, and a 12 mL application volume at a rate of 187 L/ha.
(§3) Treatments consisted of the potassium (K^+) salt of 4-amino-3-chloro-6-(4-chloro-2-fluoro-3-methoxyphenyl)-pyridine-2-carboxylic acid (Cmpd 4) formulated as a soluble liquid (SL), the propargyl ester of 4-amino-3-chloro-6-(4-chloro-2-fluoro-3-methoxyphenyl)-pyridine-2-carboxylic acid (Cmpd 2) as technical grade material, or the benzyl ester of 4-amino-3-chloro-6-(4-chloro-2-fluoro-3-methoxyphenyl)-pyridine-2-carboxylic acid (Cmpd 3) as technical grade material and quizalofop-p-ethyl (Assure® II) alone and in combination. Forms of compound of formula (I) and quizalofop-P-ethyl were applied on an acid equivalent basis.
(§4) For treatments comprised of formulated compounds, measured amounts of compounds were placed individually in 25 mL glass vials and diluted in a volume of 1.5% (v/v) Agri-Dex® crop oil concentrated to obtain 6× stock solutions. […] Application solutions were prepared by adding an appropriate amount of each stock solution (typically 2 mL) and diluted to the appropriate final concentrations with the addition of an appropriate amount of an aqueous mixture of 1.5% (v/v) crop oil concentrate and water so that the final spray solutions contained 1.25+/−0.05% (v/v) crop oil concentrate.
(§5) For treatments comprised of formulated and technical compounds, weighed amounts of the technical materials were placed individually in 25 mL glass vials and dissolved in a volume of 97:3 v/v acetone/DMSO to obtain 6× stock solutions, and measured amounts of the formulated compounds were placed individually in 25 mL glass vials and diluted in a volume of 1.5% (v/v) crop oil concentrate or water to obtain 6× stock solutions. […] Application solutions were prepared by adding an appropriate amount of each stock solution (e.g., 2 mL) and diluted to the appropriate final concentrations with the addition of an appropriate amount of an aqueous mixture of 1.5% (v/v) crop oil concentrate and water so that the final spray solutions contained 1.25% (v/v) crop oil concentrate. When required, additional water and/or 97:3 v/v acetone/DMSO can be added to individual application solutions so that the final acetone and DMSO concentrations of the application solutions being compared are 16.2% and 0.5%, respectively.
(§6) All stock solutions and applications solutions were visually inspected for compound compatibility prior to application. Compound requirements are based upon a 12 mL application volume at a rate of 187 liters per hectare (L/ha). […]

[2] = tested on: LOLMU Lolium multiflorum Lam. (Italian ryegrass); conditions: Quizalofop-P-ethyl 3.56 g ae/ha
Excerpt: as §1, §2, §3, §4, §5, §6

[3] = tested on: AVEFA Avena fatua L. (wild oat)
Excerpt: as §1, §2, §3, §4, §5, §6

[4] = tested on: OEOBI Oenothera biennis (evening primrose)
Excerpt: as §1, §2, §3, §4, §5, §6

[5] = tested on: DIGSA Digitaria sanguinalis (L.) Scop. (large crabgrass); conditions: Quizalofop-P-ethyl 3.56 g ae/ha
Excerpt: as §1, §2, §3, §4, §5, §6

[6] = Quizalofop-P-ethyl 7.125 g ae/ha
[7] = Quizalofop-P-ethyl 14.25 g ae/ha

CCOC(=O)[C@@H](C)Oc1ccc(Oc2cnc3cc(Cl)ccc3n2)cc1 [Quizalofop-P-ethyl, quizalofop-P-ethyl]
Percent (%) injury rated visually 14 DAA Obs [1]: 50% | Percent (%) injury rated visually 14 DAA Obs [2]: 0% | Percent (%) injury rated visually 14 DAA Obs ([3]; Quizalofop-P-ethyl 3.56 g ae/ha): 15% | Percent (%) injury rated visually 14 DAA Obs [3, 6]: 15% | Percent (%) injury rated visually 14 DAA Obs [3, 7]: 40% | Percent (%) injury rated visually 14 DAA Obs [4, 6]: 0% | Percent (%) injury rated visually 14 DAA Obs [4, 7]: 0% | Percent (%) injury rated visually 14 DAA Obs ([4]; Quizalofop-P-ethyl 28.5 g ae/ha): 0% | Percent (%) injury rated visually 14 DAA Obs [5]: 20%
